Laboratory results reported in patent publication US6991778B2, “Use of dendrimers polyl-functionalized with nitroxide groups as contrast enhancing agents in MRI imaging of joints and injectable compositions comprising them” (Nitrosci, priority 1999, dated 2006).
Like-named read-outs stand apart in the source and are kept apart here.

How the values were obtained:
[1] = In vitro rate of nitroxide reduction by superoxide in the presence of a thiol (EPR); type: in vitro ADME; settings: room temperature; nitroxide 50 micromolar, cysteine 200 micromolar, superoxide flux 10 micromolar/min, pH 7.4
Source text: In vitro rate of nitroxide reduction (Table 1) was undertaken using superoxide in the presence of a thiol, as an in vitro model for activated phagocytic cells. G. M. Rosen, B. E. Britigan, M. S. Cohen, S. P. Ellington and M. J. Barber, Biochim. Biophys. Acta, 969:236-241, 1988; G. M. Rosen and E. J. Rauckman. Biochem. Pharmacol. 26: 675-678, 1977; S. Pou, P. L. Davis, G. L. Wolf and G. M. Rosen, Free Rad. Res. 23: 353-364, 1995; and E. Finkelstein, G. M. Rosen and E. J. Rauckman, Biochim. Biophys. Acta, 802:90-98, 1984. For these determinations, nitroxides [S. Pou, et al, E. Finkelstein, et al., supra, and H. Kuthan, V. Ullrich and R. Estabrook, Biochem. J. 203: 551-558, 1982, (50 micromolar) were added to cysteine (200 micromolar) in the presence of a continued flux of superoxide (10 micromolar/min), generated by the action of xanthine oxidase on xanthine (400 micromolar) in Chelexed sodium phosphate buffer (50 mM, pH 7.4) The rate of superoxide production was estimated by following the superoxide dismutase (30 U/mL) inhibitable reduction of ferricytochrome c at […] using a molar absorbance of 21 mM^−1 cm^−1. H. Kuthan et al. supra. Rates of nitroxide reduction were monitored by EPR spectroscopy at ambient temperature by observing the change of the low-field (the broadened EPR spectrum of each dendrimer-linked nitroxide prevented the use of other peaks to measure rates of reduction) as a function of time.

[2] = Relaxivities (k1) of nitroxides and dendrimers; type: physicochemical; set-up: unit not given here; settings: room temperature, 1.5 T
[3] = MRI of rabbit knee joint after intra-articular injection; type: in vivo; settings: 1 mL of stock solution into rabbit knee joint
Description: Rabbits (2.8-3.5 kg) to be used for MRI experiments are sedated with intramuscular Ketamine and Xylazine. Anesthesia is maintained with i. v. sodium pentobarbital as required. Under fluoroscopic guidance, a needle (gauge 25) is placed into the knee joint of a thus-anesthetized rabbit and 1 mL of a stock solution of a nitroxyl functionalized dendrimer of Formula (I) containing 32 nitroxyl functionalizing groups. The rabbit's injected joint is then positioned in a MR imager.

[4] = MRI of shoulder joints after intra-articular injection; type: in vivo, human; settings: 1 mL of 100 μM solution into both shoulder joints, 1.5 Tesla
Description: Into both shoulder joints of a person (45-55 kg), with post-trauma chronic soreness in one of the shoulder joint is injected 1 mL of a stock 100 μM sterile solution in 0.9% normal saline of a dendrimer of Formula (I) containing 32 terminal PROXYL-3-carbamido nitroxide groups using a (gauge 25) needle. Then position the patent in a MR imager (1.5 Tesla MR system, SIGNA; General Electric Medical Systems, Milwaukee, Wis.) and obtain a scan of both joints in the conventional manner.

[5] = in vivo, iv; cited from earlier work
[6] = cited from earlier work
[7] = rabbit; cited from earlier work
[8] = rabbit joints; Bacic, et al. 1997; cited from earlier work

Molecule	Reduction Rate [1] [µM/min]	Relaxivity (k1) [2]	further results
CC1(C)CC(C(=O)O)C(C)(C)N1[O] (stereo not drawn) [[1], 3-carboxy-2,2,5,5-tetramethyl-1-pyrrolidinyloxyl, reference compound]	0.52	0.19	
O=C([O-])CN(CCN(CC(=O)[O-])CC(=O)O)CCN(CC(=O)[O-])CC(=O)O.[Gd+3] [Gd(DTPA), gadolinium (Gd)-DTPA]		4.94	equilibration throughout the cartilage [5]: ca. 5 hr; relaxivity ([6]; as reported by Keana, et al.): 4.95 mM⁻¹ s⁻¹; relaxivity ([6]; room temperature, 1.5 T): ca. 5
CC1(C)CC(C[N+](C)(C)C)C(C)(C)N1[O].[I-] (stereo not drawn) [3-trimethylaminomethyl-2,2,5,5-tetramethyl-1-pyrrolidinyloxyl iodide]			in vivo stability [7]: remarkable; affinity toward proteoglycans [8]: high affinity
DAB-dendrimer-(NH-3-CH2-PROXYL)4 [[15]]		0.82	

Second part, led by results:

Reduction Rate [1] [µM/min]	Molecule	Relaxivity (k1) [2]	further results
7.93	DAB-dendrimer-(NH-3-CO-PROXYL)4 [[5]]	0.82	
7.54	TREN-dendrimer-(NH-3-CO-PROXYL)3 [[6]]	0.57	
0.00	DAB-dendrimer-(NH-3-CO-PROXYL)32 [[9]]	5.73	articular cartilage in the MR image [3]: readily identifiable; status of the articular cartilage in the MR image [4]: readily identifiable
0.00	DAB-dendrimer-(NH-3-CO-PROXYL)8 [[7]]	1.69	
0.00	DAB-dendrimer-(NH-3-CO-PROXYL)16 [[8]]	3.19	
